Results taken from ChEMBL document CHEMBL5247609, “Novel nitric oxide-releasing derivatives of pyranocarbazole as antitumor agents: Design, synthesis, biological evaluation, and nitric oxide release studies” (Eur J Med Chem, 2022).
Activity calls are given as the source filed them. No cut-off for these calls is given here.

Tests used:
HeLa = experiment: Antiproliferative activity against human HeLa cells assessed as reduction in cell viability after 96 hrs by MTT assay; assay type: functional, cell-based
NCI-H460 = experiment: Antiproliferative activity against human H460 cells assessed as reduction in cell viability after 96 hrs by MTT assay; assay type: functional, cell-based; conditions: NCI-H460, 96 h
MDA-MB-231 [1] = experiment: Antiproliferative activity against human MDA-MB-231 cells assessed as reduction in cell viability by measuring release of nitrite at 100 uM after 180 mins by Griess reagent analysis; assay type: functional; conditions: 3 h
MDA-MB-231 [2] = experiment: Antiproliferative activity against human MDA-MB-231 cells assessed as reduction in cell viability after 96 hrs by MTT assay; assay type: functional, cell-based; conditions: MDA-MB-231, 96 h
MX1 [3] = experiment: Induction of apoptosis in human MX1 cells assessed as early apoptotic cells measured at 5 uM after 48 hrs by FITC-Annexin-V and propidium iodide based flow cytometric analysis (reference value: 6.30%); assay type: functional
MDA-MB-231 [4] = experiment: Induction of apoptosis in human MDA-MB-231 cells assessed as necrotic cells measured at 5 uM after 48 hrs by FITC-Annexin-V and propidium iodide based flow cytometric analysis (reference value: 0.253 %); assay type: functional
MDA-MB-231 [5] = experiment: Induction of apoptosis in human MDA-MB-231 cells assessed as late apoptotic cells measured at 5 uM after 48 hrs by FITC-Annexin-V and propidium iodide based flow cytometric analysis (reference value: 2.68%); assay type: functional
MX1 [6] = experiment: Induction of morphological changes in human MX1 cells at 5 uM measured after 24 hrs by bright field inverted microscopic analysis; assay type: functional, cell-based
MDA-MB-231 [7] = experiment: Antiproliferative activity against human MDA-MB-231 cells assessed as decrease in number of colony formation at 5 uM measured after 14 days by crystal violet staining based analysis; assay type: functional, cell-based; conditions: time 14.0 day
MX1 [8] = experiment: Induction of apoptosis in human MX1 cells assessed as late apoptotic cells measured at 5 uM after 48 hrs by FITC-Annexin-V and propidium iodide based flow cytometric analysis (reference value: 5.24%); assay type: functional
MDA-MB-231 [9] = experiment: Induction of morphological changes in human MDA-MB-231 cells assessed as decrease in cell size at 5 uM measured after 24 hrs by bright field inverted microscopic analysis; assay type: functional, cell-based
MDA-MB-231 [10] = experiment: Induction of apoptosis in human MDA-MB-231 cells assessed as viable cells measured at 5 uM after 48 hrs by FITC-Annexin-V and propidium iodide based flow cytometric analysis (reference value: 94.4% ); assay type: functional; conditions: read-out: Activity
MX1 [11] = experiment: Induction of apoptosis in human MX1 cells assessed as viable cells measured at 5 uM after 48 hrs by FITC-Annexin-V and propidium iodide based flow cytometric analysis (reference value: 88.4%); assay type: functional; conditions: read-out: Activity
MDA-MB-231 [12] = experiment: Induction of apoptosis in human MDA-MB-231 cells assessed as early apoptotic cells measured at 5 uM after 48 hrs by FITC-Annexin-V and propidium iodide based flow cytometric analysis (reference value: 2.71%); assay type: functional
MDA-MB-231 [13] = experiment: Induction of morphological changes in human MDA-MB-231 cells at 5 uM measured after 24 hrs by bright field inverted microscopic analysis; assay type: functional, cell-based
MX1 [14] = experiment: Induction of apoptosis in human MX1 cells assessed as necrotic cells measured at 5 uM after 48 hrs by FITC-Annexin-V and propidium iodide based flow cytometric analysis (reference value: 0.055 %); assay type: functional
MDA-MB-231 [15] = experiment: Induction of morphological changes in human MDA-MB-231 cells assessed as decrease in cell number at 5 uM measured after 24 hrs by bright field inverted microscopic analysis; assay type: functional, cell-based
MX1 [16] = experiment: Induction of morphological changes in human MX1 cells assessed as decrease in cell number at 5 uM measured after 24 hrs by bright field inverted microscopic analysis; assay type: functional, cell-based
MX1 [17] = experiment: Induction of morphological changes in human MX1 cells assessed as decrease in cell size at 5 uM measured after 24 hrs by bright field inverted microscopic analysis; assay type: functional, cell-based

| IC50 (HeLa) | IC50 (NCI-H460) | IC50 (MDA-MB-231 [2]) | Compound | Nitrite release (MDA-MB-231 [1]) | also measured |
| --- | --- | --- | --- | --- | --- |
| 240 nM | 6.04 µM | 0.38 µM | CC1(C)C=Cc2c(c(/C=C/C(=O)N3CCCC3COc3no[n+]([O-])c3S(=O)(=O)c3ccccc3)cc3c2[nH]c2ccc(C(C)(C)C)cc23)O1 (stereo not given) | 19.7 µM |  |
| 3860 nM | 4.49 µM | 3.75 µM | CC1(C)C=Cc2c(c(CN3CCC(COc4no[n+]([O-])c4S(=O)(=O)c4ccccc4)CC3)cc3c2[nH]c2ccc(C(C)(C)C)cc23)O1 |  |  |
| 240 nM | 3.18 µM | 0.21 µM | CC1(C)C=Cc2c(c(/C=C/C(=O)N3CCC(CCOc4no[n+]([O-])c4S(=O)(=O)c4ccccc4)CC3)cc3c2[nH]c2ccc(C(C)(C)C)cc23)O1 | 19.7 µM |  |
| 230 nM | 1.28 µM | 0.18 µM | CC1(C)C=Cc2c(c(/C=C/C(=O)NCCCOc3no[n+]([O-])c3S(=O)(=O)c3ccccc3)cc3c2[nH]c2ccc(C(C)(C)C)cc23)O1 | 19.7 µM |  |
| 1350 nM | 2.68 µM | 3.52 µM | CC1(C)C=Cc2c(c(/C=C/C(=O)N3CCC(Oc4no[n+]([O-])c4S(=O)(=O)c4ccccc4)CC3)cc3c2[nH]c2ccc(C(C)(C)C)cc23)O1 |  |  |
| 6 nM |  | 0.05 µM | CC(=O)O[C@H]1C(=O)[C@@]2(C)[C@H]([C@H](OC(=O)c3ccccc3)[C@]3(O)C[C@H](OC(=O)[C@H](O)[C@@H](NC(=O)c4ccccc4)c4ccccc4)C(C)=C1C3(C)C)[C@]1(OC(C)=O)CO[C@@H]1C[C@@H]2O [PACLITAXEL] | 19.7 µM |  |
| 1290 nM | 3.59 µM | 3.43 µM | CN1CCN(Cc2cc3c([nH]c4ccc(C(C)(C)C)cc43)c3c2OC(C)(C)C=C3)CC1 |  | Activity (MX1 [3]): 53.8%; Activity (MDA-MB-231 [4]): 0.745%; Activity (MDA-MB-231 [5]): 7.79%; Activity (MX1 [6]): Active; Activity (MDA-MB-231 [7]): Active; Activity (MX1 [8]): 9.97%; Activity (MDA-MB-231 [9]): Active; viability at 5 µM (MDA-MB-231 [10]): 81.3%; viability at 5 µM (MX1 [11]): 36%; Activity (MDA-MB-231 [12]): 10.2%; Activity (MDA-MB-231 [13]): Active; Activity (MX1 [14]): 0.175%; Activity (MDA-MB-231 [15]): Active; Activity (MX1 [16]): Active; Activity (MX1 [17]): Active |
| 5340 nM | 5.98 µM | 4.26 µM | CC1(C)C=Cc2c(c(CNCCOc3no[n+]([O-])c3S(=O)(=O)c3ccccc3)cc3c2[nH]c2ccc(C(C)(C)C)cc23)O1 | 19.7 µM |  |
| 210 nM | 0.99 µM | 0.2 µM | CC(CNC(=O)/C=C/c1cc2c([nH]c3ccc(C(C)(C)C)cc32)c2c1OC(C)(C)C=C2)Oc1no[n+]([O-])c1S(=O)(=O)c1ccccc1 (stereo not given) |  |  |
| 430 nM | 1.36 µM | 0.29 µM | CC1(C)C=Cc2c(c(/C=C/C(=O)N3CCC(COc4no[n+]([O-])c4S(=O)(=O)c4ccccc4)CC3)cc3c2[nH]c2ccc(C(C)(C)C)cc23)O1 | 19.7 µM |  |
| 1620 nM | 1.39 µM | 3.51 µM | CC1(C)C=Cc2c(c(CN3CCC(Oc4no[n+]([O-])c4S(=O)(=O)c4ccccc4)CC3)cc3c2[nH]c2ccc(C(C)(C)C)cc23)O1 | 19.7 µM |  |
| 1830 nM | 1.96 µM | 3.5 µM | CC1(C)C=Cc2c(c(CN3CCC(CCOc4no[n+]([O-])c4S(=O)(=O)c4ccccc4)CC3)cc3c2[nH]c2ccc(C(C)(C)C)cc23)O1 | 19.7 µM |  |
| 7550 nM | 7.49 µM | 5.85 µM | CC1(C)C=Cc2c(c(CNCCCOc3no[n+]([O-])c3S(=O)(=O)c3ccccc3)cc3c2[nH]c2ccc(C(C)(C)C)cc23)O1 | 19.7 µM |  |
| 10500 nM | 16.3 µM | 12.7 µM | NCCOc1no[n+]([O-])c1S(=O)(=O)c1ccccc1 |  |  |
